IC50, inhibition and Activity data for four molecules are collected here from ChEMBL document CHEMBL3734711, “Discovery of novel sphingosine kinase 1 inhibitors via structure-based hierarchical virtual screening” (Medchemcomm, 2015).

pIC50: −log10 of the molar value. Activity calls are given as the source filed them. The rule behind the calls is not given here.

For experiment [1], the target named is T1, Sphingosine kinase 2 (Homo sapiens, UniProt Q9NRA0).
T1 sequence (Q9NRA0 whole entry): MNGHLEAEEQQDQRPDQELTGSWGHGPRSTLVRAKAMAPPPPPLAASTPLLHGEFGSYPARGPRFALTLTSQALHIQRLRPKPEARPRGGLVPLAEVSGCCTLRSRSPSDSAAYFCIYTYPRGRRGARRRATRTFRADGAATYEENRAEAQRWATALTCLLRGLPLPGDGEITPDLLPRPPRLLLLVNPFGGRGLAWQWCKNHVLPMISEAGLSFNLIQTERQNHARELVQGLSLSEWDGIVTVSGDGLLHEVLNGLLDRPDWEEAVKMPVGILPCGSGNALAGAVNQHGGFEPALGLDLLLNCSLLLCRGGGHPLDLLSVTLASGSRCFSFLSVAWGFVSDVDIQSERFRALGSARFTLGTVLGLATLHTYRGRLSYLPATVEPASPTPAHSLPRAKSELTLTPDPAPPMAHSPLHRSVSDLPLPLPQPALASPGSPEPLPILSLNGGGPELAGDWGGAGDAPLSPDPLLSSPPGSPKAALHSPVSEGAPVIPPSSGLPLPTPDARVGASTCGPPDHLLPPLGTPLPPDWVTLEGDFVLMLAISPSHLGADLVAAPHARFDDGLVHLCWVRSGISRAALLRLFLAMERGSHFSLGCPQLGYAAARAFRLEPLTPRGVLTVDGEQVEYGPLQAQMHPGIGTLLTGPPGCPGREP
The experiment is described as follows: Inhibition of human recombinant SphK2 preincubated for 5 mins followed by substrate addition measured for 60 mins by plate reader assay.

Experiment [2] has as its target T2, Sphingosine kinase 1 (Homo sapiens, UniProt Q9NYA1). The experiment is described as follows: Inhibition of human recombinant SphK1 preincubated for 5 mins followed by substrate addition measured for 60 mins by plate reader assay.
Experiment [3] concerns the target T2, Sphingosine kinase 1. In words: Inhibition of human recombinant SphK1 at 50 uM preincubated for 5 mins followed by substrate addition measured for 60 mins by plate reader assay.
The target in experiment [4] is T3, Sphingosine kinase 2 (Homo sapiens) (UniProt Q9NRA0).
T3 sequence (whole entry): T1 sequence (Q9NRA0 whole entry)
In words: Inhibition of human recombinant SphK2 at 50 uM preincubated for 5 mins followed by substrate addition measured for 60 mins by plate reader assay.

The target of experiment [5] is T3, Sphingosine kinase 2 (Homo sapiens). The experiment is described as follows: Inhibition of human recombinant SphK2 at 500 uM preincubated for 5 mins followed by substrate addition measured for 60 mins by plate reader assay.
Experiment [6] deals with U-937. The experiment is described as follows: Antiproliferative activity against human U937 cells after 72 hrs by MTT assay. It counts as functional, cell-based.

T2 sequence (Q9NYA1 whole entry): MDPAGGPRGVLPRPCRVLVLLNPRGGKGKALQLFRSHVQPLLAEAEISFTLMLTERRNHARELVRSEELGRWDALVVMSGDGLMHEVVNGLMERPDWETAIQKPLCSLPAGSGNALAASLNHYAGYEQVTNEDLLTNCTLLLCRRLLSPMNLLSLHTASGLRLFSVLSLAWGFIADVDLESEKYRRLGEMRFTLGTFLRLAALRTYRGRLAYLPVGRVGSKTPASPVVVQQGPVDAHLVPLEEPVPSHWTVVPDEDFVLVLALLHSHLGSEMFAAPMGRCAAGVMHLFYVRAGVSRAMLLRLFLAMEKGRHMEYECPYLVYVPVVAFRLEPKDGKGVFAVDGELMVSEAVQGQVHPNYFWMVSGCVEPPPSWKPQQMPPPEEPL

For the molecule `CCCCCCCCCCCCCC(=O)Nc1nc2ccccc2[nH]1`, the results for the pIC50 in experiment [1] and in experiment [2] were 4.50 and 4.39, respectively. Moreover, the inhibition in experiment [3] was above 60%. For the same molecule, the inhibition entry in experiment [4] and in experiment [5] was “Active” in each case.

Regarding `O=C(N/N=C/c1cccc(OCc2ccccc2)c1)c1cc(O)c(O)c(O)c1`, the pIC50 in experiment [1] was 4.77; in experiment [2], 4.64. Besides, the inhibition in experiment [3] is above 60%. In experiment [6], the Activity entry is “Dose-dependent effect”. The inhibition entry in experiment [4] and in experiment [5] was “Active” throughout.

Consider `CCCOc1ccc(N2C(=O)CC(Nc3ccc(CCO)cc3)C2=O)cc1` (configuration not stated), for which the pIC50 was 4.20 in experiment [1] and 4.21 in experiment [2]. Moreover, in experiment [3], the inhibition was above 60%. Moreover, the inhibition entry in experiment [4] and in experiment [5] was “Active” in each case.

Regarding `CCCCCCCCCCCCC/C=C/[C@@H](O)[C@H](CO)N(C)C` [DIMETHYLSPINGOSINE], the pIC50 in experiment [1] was 4.79.
